Legend:
Huh7 (liver) = assay: Cytotoxicity on human cells, automated nuclei counting: Huh7; assay type: cell-based; conditions: Huh-7, exposed 24 h to 48 h, 0.1 to 25 μM
Description: (§1) Cytotoxicity: This method is based on an automated imaging analysis. 4.10^3 cells were cultivated on 96-well plates and left for 24 hours so as to bind, to spread and proliferate.
(§2) All the cell lines were cultivated in a DMEM or RPMI (Invitrogen) medium. All these media were completed with antibiotics (penicillin-streptomycin) (Lonza) and 10% by volume of fetal calf serum (Invitrogen). The cells were cultivated at 37° C. with 5% of CO2. The treatments with the molecules to be tested were carried out with increasing concentrations. The control experiments were also carried out by using suitable dilutions of DMSO (maximum 1% DMSO).

fibroblast = assay: Cytotoxicity on human cells, automated nuclei counting: fibroblast; assay type: cell-based; conditions: exposed 24 h to 48 h, 0.1 to 25 μM
Description: as §1, §2

Caco (colon) = assay: Cytotoxicity on human cells, automated nuclei counting: Caco; assay type: cell-based; conditions: exposed 24 h to 48 h, 0.1 to 25 μM
Description: as §1, §2

NCI (lung) = assay: Cytotoxicity on human cells, automated nuclei counting: NCI; assay type: cell-based; conditions: exposed 24 h to 48 h, 0.1 to 25 μM
Description: as §1, §2

CDK5/D25 = target: T1, CDK5/D25 (Homo sapiens, UniProt Q00535); assay: CDK5 kinase inhibition (33P-ATP, histone H1); assay type: biochemical; conditions: buffer C, 30° C., 15 μM ATP, read-out: IC50 μM Kinases CDK5
T1 construct: made in house
Description: The protein kinase inhibition activities of the compounds of the invention are tested according to the following general procedure:
Buffer C: 60 mM β-glycerophosphate, 15 mM p-nitrophenyl-phosphate, 25 mM Mops (pH 7.2), 5 mM EGTA, 15 mM mgCl2, 1 mM DTT, 1 mM sodium vanadate and 1 mM phenylphosphate.
The controls were made with suitable dilutions of DMSO.
ATP (3.000 Ci/mmol.; 10 mCi/mL) in a final volume of 30 μL. After 30 mins of incubation at 30° C., 25 μL of supernatant aliquots were deposited on phosphocellulose Whatman P81 paper pieces of 2.5×3 cm, and after 20 seconds, the filters were washed five times (for at least 5 minutes each time) in a solution of 10 mL of phosphoric acid/1 litre of water. The wet filters were counted in the presence of 1 mL of scintillation fluid ACS (Amersham).

PC3 (prostate) = assay: Cytotoxicity on human cells, automated nuclei counting: PC3; assay type: cell-based; conditions: PC-3, exposed 24 h to 48 h, 0.1 to 25 μM
Description: as §1, §2

HCT 116 (colon) = assay: Cytotoxicity on human cells, automated nuclei counting: HCT 116; assay type: cell-based; conditions: HCT 116 cells, exposed 24 h to 48 h, 0.1 to 25 μM
Description: as §1, §2

MDA-MB 231 (breast) = assay: Cytotoxicity on human cells, automated nuclei counting: MDA-MB 231; assay type: cell-based; conditions: MDA-MB 231 cells, exposed 24 h to 48 h, 0.1 to 25 μM
Description: as §1, §2

T1 sequence (Q00535 whole entry): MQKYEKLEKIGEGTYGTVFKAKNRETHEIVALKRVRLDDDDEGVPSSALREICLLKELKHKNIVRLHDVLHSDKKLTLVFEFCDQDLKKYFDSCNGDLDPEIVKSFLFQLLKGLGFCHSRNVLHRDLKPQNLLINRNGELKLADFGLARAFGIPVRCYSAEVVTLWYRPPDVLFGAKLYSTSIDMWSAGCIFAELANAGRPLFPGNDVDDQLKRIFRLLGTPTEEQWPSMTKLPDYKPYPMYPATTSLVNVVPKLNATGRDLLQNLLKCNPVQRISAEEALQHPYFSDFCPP
T1 sequence (Q15078 99-307 partner limits assumed): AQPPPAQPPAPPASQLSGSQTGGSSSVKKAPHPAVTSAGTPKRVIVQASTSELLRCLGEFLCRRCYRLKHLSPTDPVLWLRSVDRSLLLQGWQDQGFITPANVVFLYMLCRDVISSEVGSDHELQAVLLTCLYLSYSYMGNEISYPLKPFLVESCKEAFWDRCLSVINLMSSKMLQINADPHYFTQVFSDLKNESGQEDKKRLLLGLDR

| melting point [°C] | Compound | IC50 (Huh7 (liver)) [µM] | IC50 (fibroblast) [µM] | IC50 (Caco (colon)) [µM] | IC50 (NCI (lung)) [µM] | IC50 (CDK5/D25) [µM] | IC50 (PC3 (prostate)) [µM] | IC50 (HCT 116 (colon)) [µM] | IC50 (MDA-MB 231 (breast)) [µM] |
| --- | --- | --- | --- | --- | --- | --- | --- | --- | --- |
| 184 | O=C(Nc1cc[nH]n1)Nc1cccc2c1C1CC3(CCN1C2=O)SCCS3 (stereo not drawn) [Compound 77, 1-(6′-Oxo-3′,4′,6′,10b′-tetrahydro-1′H-spiro[[1,3]dithiolane-2,2′-pyrido[2,1-a]isoindole]-10′-yl)-3-(1H-pyrazol-3-yl)urea] |  |  |  |  |  |  |  |  |
| 230 | O=C1CCN2C(=O)c3cccc(-n4c(=O)[nH]c5cnccc5c4=O)c3C2C1 (stereo not drawn) [Compound 99, 10-(2,4-dioxo-1,2-dihydropyrido[3,4-d]pyrimidin-3(4H)-yl)-1,3,4,10b-tetrahydropyrido[2,1-a]isoindole-2,6-dione] |  |  |  |  |  |  |  |  |
|  | O=C(Nc1ccccn1)Nc1cccc2c1C1CC3(CCN1C2=O)OCCO3 (stereo not drawn) [Compound 28, 1-(6′-Oxo-3′,4′,6′,10b′-tetrahydro-1′H-spiro[[1,3]dioxolane-2,2′-pyrido[2,1-a]isoindole]-10′-yl)-3-(pyridin-2-yl)urea] | 1 | 3 | 0.6 | 4 | 11 | 1.5 | 0.6 | 1 |
| 166 | O=C(Nc1cccc2c1C1CCCCN1C2=O)NN1CCCCC1 (stereo not drawn) [Compound 85, N-(6-Oxo-1,2,3,4,6,10b-hexahydropyrido[2,1-a]isoindol-10-yl)-N′-(piperidin-1-yl)urea] |  |  |  |  |  |  |  |  |
|  | O=C(Nc1cnccn1)Nc1cccc2c1C1CC3(CCN1C2=O)OCCO3 (stereo not drawn) [Compound 29, 1-(6′-Oxo-3′,4′,6′,10b′-tetrahydro-1′H-spiro[[1,3]dioxolane-2,2′-pyrido[2,1-a]isoindole]-10′-yl)-3-(pyrazin-2-yl)urea] | 3 | 10 | 5 | 8 | 7.1 | 5 | 1.5 | 3 |
| 226 to 228 | Cc1cccc(NC(=O)Nc2cccc3c2C2CC(=O)CCN2C3=O)n1 (stereo not drawn) [Compound 101, 1-(2,6-dioxo-1,2,3,4,6,10b-hexahydropyrido[2,1-a]isoindol-10-yl)-3-(6-methyl-pyridin-2-yl)urea] |  |  |  |  |  |  |  |  |
|  | O=C(Nc1ccccn1)Nc1cccc2c1C1CCCCN1C2=O (stereo not drawn) [Compound 30, 1-(6-oxo-1,2,3,4,6,10b-hexahydropyrido[2,1-a]isoindol-10-yl)-3-(pyridin-2-yl)urea] | 0.03 | 0.2 | 0.1 | 0.2 |  | 0.1 |  | 0.05 |
| 166 | Nc1ccn(C(=O)Nc2cccc3c2C2CCCCN2C3=O)n1 (stereo not drawn) [Compound 78, 3-Amino-N-(6-oxo-1,2,3,4,6,10b-hexahydropyrido[2,1-a]isoindol-10-yl)-1H-pyrazole-1-carboxamide] |  |  |  |  |  |  |  |  |
| 223 to 225 | COc1cc(NC(=O)Nc2cccc3c2C2CC(=O)CCN2C3=O)nc2ccccc12 (stereo not drawn) [Compound 102, 1-(2,6-dioxo-1,2,3,4,6,10b-hexahydropyrido[2,1-a]isoindol-10-yl)-3-(4-methoxyquinolin-2-yl)urea] |  |  |  |  |  |  |  |  |
| 180 | O=C1c2cccc(NC(=S)Nc3ncccc3Br)c2C2CCCCN12 (stereo not drawn) [Compound 72, 1-(3-bromopyridin-2-yl)-3-(6-oxo-1,2,3,4,6,10b-hexahydropyrido[2,1-a]isoindol-10-yl)thiourea] |  |  |  |  |  |  |  |  |
| 172 | O=C(Nc1ccccc1)Nc1cccc2c1C1CCCCN1C2=O (stereo not drawn) [Compound 87, N-(6-Oxo-1,2,3,4,6,10b-hexahydropyrido[2,1-a]isoindol-10-yl)-N′-phenylurea] |  |  |  |  |  |  |  |  |
| > 290 | O=C1c2cccc(-n3c(=O)[nH]c4ncccc4c3=O)c2C2CCCCN12 (stereo not drawn) [Compound 117, 3-(6-Oxo-1,2,3,4,6,10b-hexahydro-pyrido[2,1-a]isoindol-10-yl)-1H-pyrido[2,3-d]pyrimidine-2,4-dione] |  |  |  |  |  |  |  |  |
| 232 | Cc1ccc(NC(=S)Nc2cccc3c2C2CCCCN2C3=O)nc1 (stereo not drawn) [Compound 73, 1-(5-methylpyridin-2-yl)-3-(6-oxo-1,2,3,4,6,10b-hexahydropyrido[2,1-a]isoindol-10-yl)thiourea] |  |  |  |  |  |  |  |  |
| 204 | O=C1c2cccc(-n3c(=O)[nH]c4cnccc4c3=O)c2C2CC3(CCN12)OCCO3 (stereo not drawn) [Compound 113, 3-(6′-oxo-3′,4′,6′,10b′-tetrahydro-1′H-spiro[[1,3]dioxolane-2,2′-pyrido[2,1-a]isoindole]-10′-yl)pyrido[3,4-d]pyrimidine-2,4(1H,3H)-dione] |  |  |  |  |  |  |  |  |
| > 260 | Cc1cccnc1NC(=O)Nc1cccc2c1C1CC(=O)CCN1C2=O (stereo not drawn) [Compound 100, 1-(2,6-dioxo-1,2,3,4,6,10b-hexahydropyrido[2,1-a]isoindol-10-yl)-3-(3-methylpyridin-2-yl)urea] |  |  |  |  |  |  |  |  |
|  | O=C1CCN2C(=O)c3cccc(NC(=O)Nc4cnccn4)c3C2C1 (stereo not drawn) [Compound 98, 1-(2,6-Dioxo-1,2,3,4,6,10b-hexahydropyrido[2,1-a]isoindol-10-yl)-3-(pyrazin-2-yl)urea] | > 25 | > 25 | 25 | > 25 | > 10 | > 25 | 20 | > 25 |
| 183 | O=C(NCc1ccccc1)Nc1cccc2c1C1CCCCN1C2=O (stereo not drawn) [Compound 92, N-Benzyl-N′-(6-oxo-1,2,3,4,6,10b-hexahydropyrido[2,1-a]isoindol-10-yl)urea] |  |  |  |  |  |  |  |  |

| Compound | melting point [°C] | IC50 (Huh7 (liver)) [µM] | IC50 (fibroblast) [µM] | IC50 (Caco (colon)) [µM] | IC50 (NCI (lung)) [µM] | IC50 (CDK5/D25) [µM] | IC50 (PC3 (prostate)) [µM] | IC50 (HCT 116 (colon)) [µM] | IC50 (MDA-MB 231 (breast)) [µM] |
| --- | --- | --- | --- | --- | --- | --- | --- | --- | --- |
| O=C(Nc1ccccn1)Nc1cccc2c1C1C[C@@H](O)CCN1C2=O (stereo partly drawn) [Compound 104, 1-((2S)-2-Hydroxy-6-oxo-1,2,3,4,6,10b-hexahydropyrido[2,1-a]iso-indol-10-yl)-3-(pyridin-2-yl)urea] | 220 | 2 | 2 | 7 | 3 | 2.1 | 3 | 1 | 3 |
| Cc1cccnc1NC(=O)Nc1cccc2c1C1CC(O)CCN1C2=O (stereo not drawn) [Compound 107, 1-(2-Hydroxy-6-oxo-1,2,3,4,6,10b-hexahydropyrido[2,1-a]isoindol-10-yl)-3-(3-methylpyridin-2-yl)urea] | 204 to 206 | 5 | 6 | 12 | 7 | 0.63 | 5 | 1.5 | 8 |
| O=C(Nc1cccc(Br)n1)Nc1cccc2c1C1CC3(CCN1C2=O)SCCS3 (stereo not drawn) [Compound 21, 1-(6-Bromopyridin-2-yl)-3-(6′-oxo-3′,4′,6′,10b′-tetrahydro-1′H-spiro[[1,3]dithiolane-2,2′-pyrido[2,1-a]isoindole]-10′-yl)urea] | 170 | 2 | 9 | 3 | 6 | > 10 | 4 | 2.5 | 4 |
| Cc1cccc(NC(=O)Nc2cccc3c2C2CC(O)CCN2C3=O)n1 (stereo not drawn) [Compound 108, 1-(2-Hydroxy-6-oxo-1,2,3,4,6,10b-hexahydropyrido[2,1-a]isoindol-10-yl)-3-(6-methylpyridin-2-yl)urea] | 240 to 242 | 3 | 10 | 15 | 10 | 1 | 2 | 3 | 8 |
| O=C1CCN2C(=O)c3cccc(NC(=O)Nc4ccccn4)c3C2C1 (stereo not drawn) [Compound 97, 1-(2,6-Dioxo-1,2,3,4,6,10b-hexahydropyrido[2,1-a]isoindol-10-yl)-3-(pyridin-2-yl)urea] | 254 | 3 | 6 | 7 | 2 | 3.6 | 5 | 2 | 3 |
| O=C(Nc1cnccn1)Nc1cccc2c1C1CCCCN1C2=O (stereo not drawn) [Compound 38, 1-(6-Oxo-1,2,3,4,6,10b-hexahydropyrido[2,1-a]isoindol-10-yl)-3-(pyrazin-2-yl)urea] | 215 | 0.2 | 0.8 | 1 | 0.8 |  | 0.3 | 0.1 | 0.2 |

Source: patent publication US20120095022A1, “DERIVATIVES OF 10-AMINO-1,2,3,4-TETRAHYDROPYRIDO[2,1-A]ISOINDOL-6(10BH)-ONES, METHOD FOR PREPARATION THEREOF AND THERAPEUTIC USES THEREOF” (UNIVERSITE D'ORLEANS, priority 2009, published 2012)
